Here are results for 20 molecules from patent US20250282741A1, “NOVEL BENZOFURANYL HYDROXYPHENYL METHANONE DERIVATIVE COMPOUND OR PHARMACEUTICALLY ACCEPTABLE SALT THEREOF” (INNOVO THERAPEUTICS INC., priority 2021, published 2025).

The subject of assay [1] is MCP-1 (Monocyte chemoattractant protein-1) secretion. The assay is described as follows: Inhibition of MCP-1 secretion in LX-2 cells (ELISA). The assay is classed as cell-based. Conditions: Homo sapiens, TGF-beta 10 ng/ml, 30 to 1 μM test compound, 24 hours, read-out: LX-2 cell EC50 (MCP-1 secretion). How it is done: LX-2 cells, a hepatic stellate cell line, were cultured in 24-well tissue culture plates for 18 hours, followed by TGF-beta 10 ng/ml treatment, and then incubated with 30 to 1 μM of the test compound for 24 hours. The secreted MCP-1 protein in the cell culture medium was quantified using ELISA reagents (RnD, USA). The EC50 value was calculated from the quantitative value of MCP-1 resulting from the treatment of each test compound using prism software (Graphpad, ver 9.4 USA).
(In general: In an ELISA, binding on a coated surface is turned into a signal by an enzyme label.)

Another assay addresses HSP47 (Homo sapiens (Human), UniProt P50454). The assay is described as follows: Evaluation of HSP47 activity (inhibition of collagen fibril formation, 340 nm). In kind it is biochemical. Conditions: for inhibition at 100 µM: HSP47 inhibition; for EC50: HSP47 9.45 μg/ml, collagen fibril formation, test compound 100 μM to 1 μM. How it is done:
Fibrils were formed by adding 180 ul of phosphate-buffered saline (PBS, pH 7.4) solution to 20 ul of collagen dissolved in acidic solution (collagen solution, UK), which was measured at a wavelength of 340 nm. HSP47 (GenScript US) was added at a concentration of 9.45 μg/ml to assess HSP47 activity as the degree to which it inhibits fibril formation. Test compound was added with concentrations of 100 μM to 1 μM and the inhibitory activity of HSP47 was calculated as a percentage or EC50.

In a further assay the test system is LX-2 cells. The assay is described as follows: Sirius red assay, hepatic stellate cell fibrosis (TGF-beta treated LX-2). The assay is classed as cell-based. The following applies: Homo sapiens; for EC50: LX-2, collagen production, TGF-beta 10 ng/ml, 24 hours; for inhibition at 10 µM: LX-2 cells, collagen production. How it is done:
(§1) Liver stellate LX-2 (Elabscience C H), lung epithelial A549 (ATCC US), or skin KEL FIB (ATCC, US) cells were cultured in 24-well tissue culture plates for 18 hours, followed by TGF-beta 10 ng/ml treatment, and then incubated with test compound for 24 hours. Cells were washed with PBS, fixed with Bouin's solution, and washed twice with distilled water. The fixed cells were stained with Sirius red for 2 hours to observe cellular morphological changes, and then washed with 0.01 N HCl solution. Collagen-bound Sirius red was extracted with 0.1 N NaOH solution, which was then quantified at a wavelength of 570 nm. The inhibitory efficacy of each compound on collagen production was shown as a percentage or EC50.

The subject of another assay is A549 cells. The assay is described as follows: Sirius red assay, lung epithelial cell fibrosis (TGF-beta treated A549). The assay is classed as cell-based. Conditions: Homo sapiens, collagen production. How it is done:
as §1

Chain of HSP47 (P50454 19-418, species assumed): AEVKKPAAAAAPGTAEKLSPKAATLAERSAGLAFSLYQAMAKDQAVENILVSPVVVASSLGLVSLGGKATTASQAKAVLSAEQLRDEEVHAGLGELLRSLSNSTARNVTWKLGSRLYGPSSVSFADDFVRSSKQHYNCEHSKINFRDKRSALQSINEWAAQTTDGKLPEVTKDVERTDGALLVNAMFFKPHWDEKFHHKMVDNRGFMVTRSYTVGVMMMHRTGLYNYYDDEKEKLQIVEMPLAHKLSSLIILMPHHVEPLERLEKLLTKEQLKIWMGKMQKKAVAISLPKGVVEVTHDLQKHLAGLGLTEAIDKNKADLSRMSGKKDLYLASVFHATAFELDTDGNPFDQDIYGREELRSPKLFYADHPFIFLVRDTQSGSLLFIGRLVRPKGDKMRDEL

In general, EC50 refers to the concentration that produces a half-maximal response. The term inhibition denotes the change of the read-out against control, counted positive when it falls. For `CCc1oc2cccc(Cl)c2c1C(=O)c1cc(Br)c(O)c(Br)c1` [Example 1, (4-chloro-2-ethylbenzofuran-3-yl)(3,5-dibromo-4-hydroxyphenyl)methanone], the figures for the EC50 (in assay [1]; with LX-2 cells) were 4.61 µM and 3 µM, respectively. Moreover, the inhibition at 100 µM against HSP47 was 23.3%.

On to `CCc1oc2ccc(C)cc2c1C(=O)c1cc(Br)c(O)c(Br)c1` [Example 2, (3,5-dibromo-4-hydroxyphenyl)(2-ethyl-5-methylbenzofuran-3-yl)methanone], for which the EC50 at HSP47 was 40.8 µM. Moreover, the inhibition at 10 µM in the assay on LX-2 cells is 65.1%.

Turning to `CCc1ccc2c(C(=O)c3cc(Br)c(O)c(Br)c3)c(CC)oc2c1` [Example 3, (3,5-dibromo-4-hydroxyphenyl)(2,6-diethylbenzofuran-3-yl)methanone], the EC50 in assay [1] came to 2.21 µM; in the assay on LX-2 cells, 1.37 µM. The inhibition at 100 µM on HSP47 was 26.3%.

With `CCc1oc2c(C)cccc2c1C(=O)c1cc(Br)c(O)c(Br)c1` [Example 4, (3,5-dibromo-4-hydroxyphenyl)(2-ethyl-7-methylbenzofuran-3-yl)methanone], the results for the half-maximal effective concentration (EC50) (in assay [1]; on HSP47; in the assay on LX-2 cells) were 8.69 µM, 73 µM and 5.55 µM, respectively.

For the molecule `CCc1oc2c(Cl)cccc2c1C(=O)c1cc(Br)c(O)c(Br)c1` [Example 5, (7-chloro-2-ethylbenzofuran-3-yl)(3,5-dibromo-4-hydroxyphenyl)methanone], the EC50 in assay [1] turned out to be 3.56 µM; at HSP47, 37.8 µM; in the assay with LX-2 cells it was 4.73 µM.

`CCc1oc2c(Br)cccc2c1C(=O)c1cc(Br)c(O)c(Br)c1` [Example 6, (7-bromo-2-ethylbenzofuran-3-yl)(3,5-dibromo-4-hydroxyphenyl)methanone]: the EC50 in assay [1] was 10.2 µM; at HSP47 it was 80.8 µM; in the assay with LX-2 cells it was 17.1 µM.

For the molecule `CCc1oc2c(F)cccc2c1C(=O)c1cc(Br)c(O)c(Br)c1` [Example 7, (3,5-dibromo-4-hydroxyphenyl)(2-ethyl-7-fluorobenzofuran-3-yl)methanone], the concentration giving a half-maximal response (EC50) in assay [1] stood at 2.85 µM; in the assay on LX-2 cells it was 10.9 µM. Further, the inhibition at 100 µM against HSP47 is 18.1%.

`CCc1oc2ccc(C)cc2c1C(=O)c1cc(I)c(O)c(I)c1` [Example 8, (2-ethyl-5-methylbenzofuran-3-yl)(4-hydroxy-3,5-diiodophenyl)methanone] returned an EC50 at HSP47 of 37.1 µM. The inhibition at 10 µM with LX-2 cells was found to be 67.9%.

With `CCc1oc2cc(C)ccc2c1C(=O)c1cc(I)c(O)c(I)c1` [Example 10, (2-ethyl-6-methylbenzofuran-3-yl)(4-hydroxy-3,5-diiodophenyl)methanone], the inhibition at 100 µM at HSP47 amounted to 41.8%. Besides, the inhibition at 10 µM in the assay with LX-2 cells came to 128%.

For the molecule `CCc1oc2cc(Br)ccc2c1C(=O)c1cc(I)c(O)c(I)c1` [Example 11, (6-bromo-2-ethylbenzofuran-3-yl)(4-hydroxy-3,5-diiodophenyl)methanone], the inhibition at 100 µM against HSP47 worked out at 69.2%. For the same molecule, the inhibition at 10 µM in the assay with LX-2 cells turned out to be 78.3%.

`CCc1oc2c(C)cccc2c1C(=O)c1cc(I)c(O)c(I)c1` [Example 13, (2-ethyl-7-methylbenzofuran-3-yl)(4-hydroxy-3,5-diiodophenyl)methanone] registered an EC50 on HSP47 of 49.1 µM. In the assay on A549 cells, the inhibition at 10 µM worked out at 65.2% and the inhibition at 30 µM is 72.5%.

In the case of `CCc1oc2c(Cl)cccc2c1C(=O)c1cc(I)c(O)c(I)c1` [Example 14, (7-chloro-2-ethyl-3-yl)(4-hydroxy-3,5-diiodophenyl)methanone], the inhibition at 10 µM in the assay on LX-2 cells was found to be 90.6%.

Consider `CCc1oc2c(Br)cccc2c1C(=O)c1cc(I)c(O)c(I)c1` [Example 15, (7-bromo-2-ethylbenzofuran-3-yl)(4-hydroxy-3,5-diiodophenyl)methanone], for which the EC50 on HSP47 was 48.3 µM. Besides, in the assay on A549 cells, the inhibition at 30 µM was found to be 96.2%.

On to `O=C(c1cc(Br)c(O)c(Br)c1)c1coc2ccccc12` [Example 16, benzofuran-3-yl(3,5-dibromo-4-hydroxyphenyl)methanone], for which the EC50 on HSP47 amounted to 31.4 µM. Besides, in the assay with A549 cells, the inhibition at 10 µM was 64.3%.

On to `Cc1oc2cc(Br)ccc2c1C(=O)c1cc(Br)c(O)c(Br)c1` [Example 17, (6-bromo-2-methylbenzofuran-3-yl)(3,5-dibromo-4-hydroxyphenyl)methanone], for which the EC50 in assay [1] was 3.73 µM; with LX-2 cells, 3.7 µM. The inhibition at 100 µM against HSP47 turned out to be 19.5%.

`Cc1oc2ccc(Br)cc2c1C(=O)c1cc(Br)c(O)c(Br)c1` [Example 18, (5-bromo-2-methylbenzofuran-3-yl)(3,5-dibromo-4-hydroxyphenyl)methanone]: the EC50 in assay [1] was found to be 3.01 µM; in the assay on LX-2 cells, 4.67 µM. Moreover, the inhibition at 100 µM on HSP47 stood at 75.2%.

As for `CCc1ccc2oc(CC)c(C(=O)c3cc(Br)c(O)c(Br)c3)c2c1` [Example 20, (3,5-dibromo-4-hydroxyphenyl)(2,5-diethylbenzofuran-3-yl)methanone], the EC50 was 2.1 µM in assay [1], 49.2 µM at HSP47 and 4.02 µM with LX-2 cells.

As for `CCc1oc2c(CC)cccc2c1C(=O)c1cc(Br)c(O)c(Br)c1` [Example 21, (3,5-dibromo-4-hydroxyphenyl)(2,7-diethylbenzofuran-3-yl)methanone], the EC50 in assay [1] worked out at 2.8 µM; at HSP47, 5.52 µM; with LX-2 cells it was 3.07 µM.

Consider `CCc1oc2cccc(C)c2c1C(=O)c1cc(Br)c(O)c(Br)c1` [Example 23, (3,5-dibromo-4-hydroxyphenyl)(2-ethyl-4-methylbenzofuran-3-yl)methanone], for which the EC50 on HSP47 turned out to be 71 µM; with LX-2 cells it was 3.39 µM.

Take `CCc1oc2cccc(F)c2c1C(=O)c1cc(Br)c(O)c(Br)c1` [Example 24, (3,5-dibromo-4-hydroxyphenyl)(2-ethyl-4-fluorobenzofuran-3-yl)methanone]: the EC50 was 104 µM at HSP47 and 3.6 µM in the assay on LX-2 cells.
